Laboratory results: patent US10646455B2, “Uses of hydroxyanigorufone” (TCI CO., LTD, priority 2017, dated 2020)

Key:
Format in all cases: cell-based
Conditions in all cases: 0.0625 μg/ml, 48 hours, control set as 1-fold, average of three experiments
DDC gene = test: qPCR expression of DDC gene in SHSY5Y cells
Procedure: (§1) SHSY5Y cells were seeded in a 6-well plate (1×10^5 cells/well) and then cultured for 24 hours. Thereafter, cells were divided into the control group and experimental group and were separately cultured in the following medium for 48 hours: • 1. Control group: DMEM medium; • 2. Experimental group: a medium the same as that of the control group, but additionally added with 0.0625 μg/ml of the compound of formula (I).
(§2) Thereafter, cells of the above groups were harvested and subjected to an RNA extraction with an RNA Extract Kit. The RNA thus obtained was then transcribed into cDNA by using a Reverse Transcriptase. Thereafter, the cDNA was subjected to a quantitative polymerase chain reaction (qPCR) by using a Step One Plus system and a KAPA SYBR FAST qPCR kit to determine the expression levels of genes related to melatonin (including TPH1, DDC, AANAT and ASMTL) in the cells of each group.
(§3) The above experimental steps were repeated three times, and then the results of the three experiments were averaged. Thereafter, the result of the control group was used as a basis (i.e., the gene expression level of the control group was set as 1-fold) to calculate the relative gene expression level of the experimental group.

AANAT gene = test: qPCR expression of AANAT gene in SHSY5Y cells
Procedure: as §1, §2, §3

TPH1 gene = test: qPCR expression of TPH1 gene in SHSY5Y cells
Procedure: as §1, §2, §3

ASMTL gene = test: qPCR expression of ASMTL gene in SHSY5Y cells
Procedure: as §1, §2, §3

O=C1C(O)=Cc2cccc3ccc(-c4ccc(O)cc4)c1c23 [compound of formula (I), hydroxyanigorufone]
significantly increased: expression level of DDC gene relative to control group (DDC gene) | expression level of AANAT gene relative to control group (AANAT gene) | expression level of TPH1 gene relative to control group (TPH1 gene) | expression level of ASMTL gene relative to control group (ASMTL gene)
